Data taken from patent publication US10294202B2, “Pyrrolidinones as herbicides” (FMC Corporation, priority 2013, dated 2019).

Assays:
barnyardgrass = assay: Test A pre-/postemergence herbicide test; type: in vivo, Echinochloa crus-galli; settings: for Barnyardgrass plant response rating: Preemergence, visual rating on 0 to 100 scale (0 no effect, 100 complete control)
Method in brief: (§1)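 Directed soil spray to seeded pots (preemergence) or spray onto one- to two-leaf seedlings 2–10 cm tall (postemergence); loam/sand substrate throughout. Evaluated visually after about 10 days against untreated plants, 0 = no effect, 100 = complete control.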

corn [1] = assay: Test A pre-/postemergence herbicide test; type: in vivo, Zea mays; settings: for Corn plant response rating: Preemergence, visual rating on 0 to 100 scale (0 no effect, 100 complete control)
Method in brief: as §1

pigweed = assay: Test A pre-/postemergence herbicide test; type: in vivo, Amaranthus retroflexus; settings: for Pigweed plant response rating: Preemergence, visual rating on 0 to 100 scale (0 no effect, 100 complete control)
Method in brief: as §1

foxtail, giant = assay: Test C pre-/postemergence herbicide test; type: in vivo, Setaria faberii; settings: Preemergence; for Plant response rating (scale of 0 to 100), Foxtail, Giant: 250 g ai/ha
Source text: (§2) Seeds of plant species selected from blackgrass (Alopecurus myosuroides), ryegrass, Italian (Italian ryegrass, Lolium multiflorum), wheat (winter wheat, Triticum aestivum), galium (catchweed bedstraw, Galium aparine), corn (Zea mays), crabgrass, large (large crabgrass, Digitaria sanguinalis), foxtail, giant (giant foxtail, Setaria faberii), johnsongrass (Sorghum halepense), lambsquarters (Chenopodium album), morningglory (Ipomoea coccinea), nutsedge, yellow (yellow nutsedge, Cyperus esculentus), pigweed (Amaranthus retroflexus), ragweed (common ragweed, Ambrosia elatior), soybean (Glycine max), barnyardgrass (Echinochloa crus-galli), oilseed rape (Brassica napus), waterhemp (common waterhemp, Amaranthus rudis), kochia (Kochia scoparia), oat, wild (wild oat, Avena fatua), surinam grass (Brachiaria decumbens), foxtail, green (green foxtail, Setaria viridis), goosegrass (Eleusine indica), bromegrass, downy (downy bromegrass, Bromus tectorum), nightshade (eastern black nightshade, Solanum ptycanthum), cocklebur (common cocklebur, Xanthium strumarium), cupgrass, woolly (woolly cupgrass, Eriochloa villosa), bermudagrass (Cynodon dactylon), sunflower, (common oilseed sunflower, Helianthus annuus), Russian thistle (Salsola kali) and velvetleaf (Abutilon theophrasti) were planted into a blend of loam soil and sand and treated preemergence with test chemicals formulated in a non-phytotoxic solvent mixture which included a surfactant. At the same time, plants selected from these crop and weed species and also barley (winter barley, Hordeum vulgare), […]), chickweed (common chickweed, Stellaria media), deadnettle (henbit deadnettle, Lamium amplexicaule), and canarygrass (littleseed canarygrass, Phalaris minor) were planted in pots containing Redi-Earth® planting medium (Scotts Company, 14111 Scottslawn Road, Marysville, Ohio 43041) comprising spaghnum peat moss, vermiculite, wetting agent and starter nutrients and treated with postemergence applications of test chemicals formulated in the same manner. Plants ranged in height from 2 to 18 cm (1- to 4-leaf stage) for postemergence treatments. Treated plants and controls were maintained in a greenhouse for 13 to 15 days, after which time all species were compared to controls and visually evaluated. Plant response ratings, summarized in Table C, are based on a scale of 0 to 100 where 0 is no effect and 100 is complete control. A dash (-) response means no test result.

galium = assay: Test C pre-/postemergence herbicide test; type: in vivo, Galium aparine; settings: Preemergence; for Plant response rating (scale of 0 to 100), Galium: 250 g ai/ha
Source text: as §2

soybean = assay: Test C pre-/postemergence herbicide test; type: in vivo, Glycine max; settings: Preemergence; for Plant response rating (scale of 0 to 100), Soybean: 250 g ai/ha
Source text: as §2

corn [2] = assay: Test C pre-/postemergence herbicide test; type: in vivo, Zea mays; settings: Preemergence; for Plant response rating (scale of 0 to 100), Corn: 250 g ai/ha
Source text: as §2

sedge, umbrella = assay: Test B flooded paddy test; type: in vivo, Cyperus difformis; settings: 250 g ai/ha, Flood; scale of 0 to 100 where 0 is no effect and 100 is complete control
Method in brief: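 In-water application to pots flooded 3 cm deep, plants at 2-leaf stage. Held in greenhouse 13–15 days at constant flood depth. Scored 0–100 by eye against controls.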

ryegrass, Italian = assay: Test C pre-/postemergence herbicide test; type: in vivo, Lolium multiflorum; settings: Preemergence; for Plant response rating (scale of 0 to 100), Ryegrass, Italian: 250 g ai/ha
Source text: as §2

ragweed = assay: Test C pre-/postemergence herbicide test; type: in vivo, Ambrosia elatior; settings: Preemergence
Source text: as §2

[3] = Postemergence, 125 g ai/ha, 0 to 100 scale, 0 no effect, 100 complete control
[4] = Postemergence, 500 g ai/ha, 0 to 100 scale (0 no effect, 100 complete control)
[5] = preemergence, 500 g ai/ha, 0 to 100 scale (0 no effect, 100 complete control)
[6] = preemergence, 500 g ai/ha, 0 to 100 scale
[7] = 31 g ai/ha, scale 0 to 100, 0 is no effect and 100 is complete control
[8] = 125 g ai/ha, scale 0 to 100 (0 no effect, 100 complete control)
[9] = 62 g ai/ha, scale 0 to 100 (0 no effect, 100 complete control)
[10] = 125 g ai/ha, visual rating, 0 to 100 scale, 0 no effect, 100 complete control, approximately 10 days, preemergence
[11] = Postemergence, 125 g ai/ha, 0 to 100 scale, 0 is no effect, 100 is complete control
[12] = preemergence, 500 g ai/ha, 0 to 100 scale, 0 is no effect and 100 is complete control

## O=C1NCC(c2cccc(C(F)(F)F)c2)C1C(=O)Nc1ccccc1F (racemic) [Compound 3]
barnyardgrass; [3]
  Plant response rating, Barnyardgrass: 70
barnyardgrass; [4]
  Plant response rating, Barnyardgrass: 80
barnyardgrass; 125 g ai/ha
  Barnyardgrass plant response rating: 60
barnyardgrass; [5]
  Plant response rating, Barnyardgrass: 80
Corn [1]; [3]
  Plant response rating, Corn: 0
Corn [1]; [4]
  Plant response rating, Corn: 60
Corn [1]; 125 g ai/ha
  Corn plant response rating: 0
Corn [1]; [6]
  Plant response rating, Corn: 50
pigweed; [4]
  Plant response rating, Pigweed: 50
pigweed; 125 g ai/ha
  Pigweed plant response rating: 0
pigweed; [6]
  Plant response rating, Pigweed: 0

## O=C1NCC(c2ccc(F)c(F)c2)C1C(=O)Nc1cccc(F)c1 (racemic) [Compound 12]
barnyardgrass; [3]
  Plant response rating, Barnyardgrass: 60
barnyardgrass; [4]
  Plant response rating, Barnyardgrass: 90
barnyardgrass; 125 g ai/ha
  Barnyardgrass plant response rating: 60
barnyardgrass; [5]
  Plant response rating, Barnyardgrass: 90
Corn [1]; [3]
  Plant response rating, Corn: 0
Corn [1]; [4]
  Plant response rating, Corn: 0
Corn [1]; 125 g ai/ha
  Corn plant response rating: 0
Corn [1]; [6]
  Plant response rating, Corn: 0
pigweed; [3]
  Plant response rating, Pigweed: 0
pigweed; [4]
  Plant response rating, Pigweed: 0
pigweed; 125 g ai/ha
  Pigweed plant response rating: 0
pigweed; [6]
  Plant response rating, Pigweed: 0

## O=C1NCC(c2ccc(F)c(C(F)(F)F)c2)C1C(=O)Nc1ccccc1C(F)(F)F (racemic) [Compound 78]
foxtail, giant; [7]
  Foxtail, Giant plant response rating: 85
foxtail, giant; 62 g ai/ha, scale 0 to 100
  Plant response rating, Foxtail, Giant: 95
foxtail, giant; [8]
  Plant response rating, Foxtail, Giant: 95
foxtail, giant
  Plant response rating (scale of 0 to 100), Foxtail, Giant: 98
barnyardgrass; [3]
  Plant response rating, Barnyardgrass: 50
barnyardgrass; [4]
  Plant response rating, Barnyardgrass: 70
barnyardgrass; 125 g ai/ha
  Barnyardgrass plant response rating: 80
barnyardgrass; [5]
  Plant response rating, Barnyardgrass: 90
Corn [1]; [3]
  Plant response rating, Corn: 20
Corn [1]; [4]
  Plant response rating, Corn: 50
Corn [1]; 125 g ai/ha
  Corn plant response rating: 0
Corn [1]; [6]
  Plant response rating, Corn: 0
galium; [7]
  Galium plant response rating: 50
galium; 62 g ai/ha, scale 0 to 100
  Plant response rating, Galium: 50
galium; [8]
  Plant response rating, Galium: 60
galium
  Plant response rating (scale of 0 to 100), Galium: 85
pigweed; [3]
  Plant response rating, Pigweed: 50
pigweed; [4]
  Plant response rating, Pigweed: 50
pigweed; 125 g ai/ha
  Pigweed plant response rating: 10
pigweed; [6]
  Plant response rating, Pigweed: 60
soybean; [7]
  Soybean plant response rating: 0
soybean; 62 g ai/ha, scale 0 to 100
  Plant response rating, Soybean: 0
soybean; [8]
  Plant response rating, Soybean: 0
soybean
  Plant response rating (scale of 0 to 100), Soybean: 0
Corn [2]; [7]
  Corn plant response rating: 0
Corn [2]; 62 g ai/ha, scale 0 to 100
  Plant response rating, Corn: 0
Corn [2]; [8]
  Plant response rating, Corn: 40
Corn [2]
  Plant response rating (scale of 0 to 100), Corn: 60
sedge, umbrella
  Plant response rating, Sedge, Umbrella: 0
ryegrass, Italian; [7]
  Ryegrass, Italian plant response rating: 0
ryegrass, Italian; 62 g ai/ha, scale 0 to 100
  Plant response rating, Ryegrass, Italian: 40
ryegrass, Italian; [8]
  Plant response rating, Ryegrass, Italian: 40
ryegrass, Italian
  Plant response rating (scale of 0 to 100), Ryegrass, Italian: 45

## O=C1NCC(c2cccc(C(F)(F)F)c2)C1C(=O)Nc1ccccc1Cl (racemic) [Compound 189]
foxtail, giant; [7]
  Foxtail, Giant plant response rating: 80
foxtail, giant; [9]
  Foxtail, Giant plant response rating: 90
foxtail, giant; [8]
  Plant response rating, Foxtail, Giant: 95
foxtail, giant; 16 g ai/ha, scale 0 to 100
  Plant response rating, Foxtail, Giant: 85
barnyardgrass; [10]
  Plant response rating, Barnyardgrass: 80
barnyardgrass; [11]
  Plant response rating, Barnyardgrass: 90
barnyardgrass; Postemergence, 500 g ai/ha
  Barnyardgrass plant response rating (0 to 100 scale, 0 is no effect, 100 is complete control): 90
barnyardgrass; [12]
  Plant response rating, Barnyardgrass: 90
ragweed; [7]
  Ragweed plant response rating: 0
ragweed; [9]
  Ragweed plant response rating: 0
ragweed; [8]
  Plant response rating, Ragweed: 0
ragweed; 16 g ai/ha, scale 0 to 100
  Plant response rating, Ragweed: 0
Corn [1]; [10]
  Plant response rating, Corn: 0
Corn [1]; [11]
  Plant response rating, Corn: 0
Corn [1]; Postemergence, 500 g ai/ha
  Corn plant response rating (0 to 100 scale, 0 is no effect, 100 is complete control): 60
Corn [1]; [12]
  Plant response rating, Corn: 0
galium; [7]
  Galium plant response rating: 0
galium; [9]
  Galium plant response rating: 0
galium; [8]
  Plant response rating, Galium: 80
galium; 16 g ai/ha, scale 0 to 100
  Plant response rating, Galium: 0
pigweed; [10]
  Plant response rating, Pigweed: 0
pigweed; [11]
  Plant response rating, Pigweed: 0
pigweed; Postemergence, 500 g ai/ha
  Pigweed plant response rating (0 to 100 scale, 0 is no effect, 100 is complete control): 0
pigweed; [12]
  Plant response rating, Pigweed: 0
soybean; [7]
  Soybean plant response rating: 5
soybean; [9]
  Soybean plant response rating: 10
soybean; [8]
  Plant response rating, Soybean: 0
soybean; 16 g ai/ha, scale 0 to 100
  Plant response rating, Soybean: 0
Corn [2]; [7]
  Corn plant response rating: 0
Corn [2]; [9]
  Corn plant response rating: 0
Corn [2]; [8]
  Plant response rating, Corn: 40
Corn [2]; 16 g ai/ha, scale 0 to 100
  Plant response rating, Corn: 0
ryegrass, Italian; [7]
  Ryegrass, Italian plant response rating: 0
ryegrass, Italian; [9]
  Ryegrass, Italian plant response rating: 30
ryegrass, Italian; [8]
  Plant response rating, Ryegrass, Italian: 45
ryegrass, Italian; 16 g ai/ha, scale 0 to 100
  Plant response rating, Ryegrass, Italian: 0

## O=C1NCC(c2cccc(C(F)F)c2)C1C(=O)Nc1cccc(F)c1F (racemic) [Compound 211]
foxtail, giant; [7]
  Foxtail, Giant plant response rating: 0
foxtail, giant; [9]
  Foxtail, Giant plant response rating: 70
foxtail, giant; [8]
  Plant response rating, Foxtail, Giant: 90
foxtail, giant
  Plant response rating (scale of 0 to 100), Foxtail, Giant: 95
barnyardgrass; [10]
  Plant response rating, Barnyardgrass: 80
barnyardgrass; [11]
  Plant response rating, Barnyardgrass: 90
barnyardgrass; Postemergence, 500 g ai/ha
  Barnyardgrass plant response rating (0 to 100 scale, 0 is no effect, 100 is complete control): 90
barnyardgrass; [12]
  Plant response rating, Barnyardgrass: 90
ragweed; [7]
  Ragweed plant response rating: 0
ragweed; [9]
  Ragweed plant response rating: 10
ragweed; [8]
  Plant response rating, Ragweed: 85
ragweed; 250 g ai/ha
  Plant response rating (scale of 0 to 100), Ragweed: 100
Corn [1]; [11]
  Plant response rating, Corn: 30
Corn [1]; Postemergence, 500 g ai/ha
  Corn plant response rating (0 to 100 scale, 0 is no effect, 100 is complete control): 70
galium; [9]
  Galium plant response rating: 5
galium; [8]
  Plant response rating, Galium: 85
galium
  Plant response rating (scale of 0 to 100), Galium: 100
pigweed; [10]
  Plant response rating, Pigweed: 20
pigweed; [11]
  Plant response rating, Pigweed: 0
pigweed; Postemergence, 500 g ai/ha
  Pigweed plant response rating (0 to 100 scale, 0 is no effect, 100 is complete control): 50
pigweed; [12]
  Plant response rating, Pigweed: 70
soybean; [7]
  Soybean plant response rating: 0
soybean; [9]
  Soybean plant response rating: 0
soybean; [8]
  Plant response rating, Soybean: 5
soybean
  Plant response rating (scale of 0 to 100), Soybean: 0
Corn [2]; [7]
  Corn plant response rating: 0
Corn [2]; [9]
  Corn plant response rating: 25
Corn [2]; [8]
  Plant response rating, Corn: 0
Corn [2]
  Plant response rating (scale of 0 to 100), Corn: 80
ryegrass, Italian; [7]
  Ryegrass, Italian plant response rating: 0
ryegrass, Italian; [9]
  Ryegrass, Italian plant response rating: 35
ryegrass, Italian; [8]
  Plant response rating, Ryegrass, Italian: 40
ryegrass, Italian
  Plant response rating (scale of 0 to 100), Ryegrass, Italian: 50
